Measured values reported in ChEMBL document CHEMBL3739353, “Arthroamide, a Cyclic Depsipeptide with Quorum Sensing Inhibitory Activity from Arthrobacter sp” (J Nat Prod, 2015).
The source made the active and inactive calls. The calls are words filed in the database; no cut-off is given here.

Legend:
Escherichia coli = experiment: Antimicrobial activity against Escherichia coli at 100 ug/ml; type: functional, organism-based
Candida albicans = experiment: Antimicrobial activity against Candida albicans at 100 ug/ml; type: functional, organism-based
[1] = biological target: T1, Accessory gene regulator protein A (Staphylococcus aureus) (UniProt P0A0I7); experiment: Inhibition of agr-mediated quorum sensing in Staphylococcus aureus at 5 to 10 uM after 5 hrs by luminescence analysis
T1 sequence (whole entry): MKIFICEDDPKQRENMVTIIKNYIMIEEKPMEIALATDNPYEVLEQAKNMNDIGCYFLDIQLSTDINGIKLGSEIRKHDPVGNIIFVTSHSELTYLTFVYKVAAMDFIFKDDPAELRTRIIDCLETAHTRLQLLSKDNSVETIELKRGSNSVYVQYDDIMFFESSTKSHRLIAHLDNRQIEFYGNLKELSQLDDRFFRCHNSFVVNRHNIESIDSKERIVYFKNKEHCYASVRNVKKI

Micrococcus luteus = experiment: Antimicrobial activity against Micrococcus luteus at 100 ug/ml; type: functional, organism-based

SMILES	Activity (Escherichia coli)	Activity (Candida albicans)	inhibition [1]	Activity (Micrococcus luteus)
CC(C)[C@@H]1NC(=O)C[C@H](/C=C/c2ccccc2)OC(=O)[C@H](C(C)C)NC(=O)[C@H](C(C)C)NC(=O)[C@@H](C)NC1=O	inactive	inactive	10%	inactive
CC[C@H](C)[C@@H]1NC(=O)[C@@H](C)NC(=O)[C@H](C(C)C)NC(=O)C[C@H](/C=C/c2ccccc2)OC(=O)[C@H](C(C)C)NC1=O			10%	
